Test results taken from US8088741B2, “Compounds for enzyme inhibition” (Onyx Therapeutics, Inc., priority 2004, dated 2012).

How the values were obtained:
[1] = target: T1, Cell-based CT-L (proteasome chymotrypsin-like activity) (Homo sapiens, UniProt P28074); experiment: Cell-based proteasome CT-L activity inhibition
T1 construct: endogenous in cells
T1 sequence (P28074 60-263): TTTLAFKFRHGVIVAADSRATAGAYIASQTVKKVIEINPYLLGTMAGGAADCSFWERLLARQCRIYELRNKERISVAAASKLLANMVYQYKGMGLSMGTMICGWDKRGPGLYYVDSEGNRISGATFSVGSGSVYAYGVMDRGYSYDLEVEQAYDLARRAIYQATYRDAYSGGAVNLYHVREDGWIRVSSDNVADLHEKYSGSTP

[2] = target: 20S proteasome chymotrypsin-like activity (CT-L) (Homo sapiens, UniProt P28074); experiment: 20S proteasome chymotrypsin-like (CT-L) activity inhibition; type: biochemical
Source text: As used herein, the term “inhibitor” is meant to describe a compound that blocks or reduces an activity of an enzyme (for example, inhibition of proteolytic cleavage of standard fluorogenic peptide substrates such as suc-LLVY-AMC, Box-LLR-AMC and Z-LLE-AMC, inhibition of various catalytic activities of the 20S proteasome). An inhibitor can act with competitive, uncompetitive, or noncompetitive inhibition. An inhibitor can bind reversibly or irreversibly, and therefore the term includes compounds that are suicide substrates of an enzyme. An inhibitor can modify one or more sites on or near the active site of the enzyme, or it can cause a conformational change elsewhere on the enzyme.
The chymotrypsin-like activity of 20S proteasome is characterized by cleavage of peptides in the immediate vicinity of large hydrophobic residues. In particular, the chymotrypsin-like activity of Ntn hydrolases can be determined by cleavage of a standard substrate. Examples of such substrates are known in the art. For example, a leucylvalinyltyrosine derivative can be used. Enzyme kinetic assays are disclosed in U.S. application Ser. No. 09/569748, Example 2 and Stein et al., Biochem. (1996), 35, 3899-3908.

`CC(=O)N[C@@H](CCc1ccccc1)C(=O)N[C@@H](CC(C)C)C(=O)N[C@@H](CO)C(=O)N[C@@H](CC(C)C)C(=O)[C@@]1(C)CO1` [Compound 2] was tested, and the IC50 [1] was less than 500 nM and the IC50 [2] was less than 50 nM.
For `CC(C)C[C@H](NC(=O)c1ccccc1)C(=O)N[C@@H](Cc1ccccc1)C(=O)N[C@@H](CC(C)C)C(=O)[C@@]1(C)CO1` [Compound 3], the IC50 [1] was less than 50 nM and the IC50 [2] was less than 50 nM.
In the case of `CC(C)C[C@H](NC(=O)C1CCN(S(=O)(=O)c2cccs2)CC1)C(=O)N[C@@H](Cc1ccccc1)C(=O)N[C@@H](CC(C)C)C(=O)[C@@]1(C)CO1` [Compound 7], the IC50 [1] is reported as less than 500 nM and the IC50 [2] is reported as less than 500 nM.
`Cc1ccc(CCC(=O)N[C@@H](CC(C)C)C(=O)N[C@@H](Cc2ccccc2)C(=O)N[C@@H](CC(C)C)C(=O)[C@@]2(C)CO2)cc1` [Compound 8] showed an IC50 [1] of less than 50 nM and an IC50 [2] of less than 50 nM.
Molecule `CC(C)C[C@H](NC(=O)[C@H](CCc1ccccc1)NC(=O)CN1CCOCC1)C(=O)N[C@@H](Cc1ccc(F)cc1)C(=O)N[C@@H](CC(C)C)C(=O)[C@@]1(C)CO1` [Compound 9] has an IC50 [1] of less than 50 nM and an IC50 [2] of less than 50 nM.
Molecule `CC(C)C[C@H](NS(=O)(=O)c1ccsc1)C(=O)N[C@@H](Cc1ccccc1)C(=O)N[C@@H](CC(C)C)C(=O)[C@@]1(C)CO1` [Compound 14] has an IC50 [1] of less than 50 nM and an IC50 [2] of less than 50 nM.
With `COc1ccc(NC(=S)N[C@@H](CC(C)C)C(=O)N[C@@H](Cc2ccccc2)C(=O)N[C@@H](CC(C)C)C(=O)[C@@]2(C)CO2)cc1` [Compound 16] the IC50 [1] was less than 50 nM and the IC50 [2] was less than 50 nM.
`COc1ccc(NC(=O)N[C@@H](CC(C)C)C(=O)N[C@@H](Cc2ccccc2)C(=O)N[C@@H](CC(C)C)C(=O)[C@@]2(C)CO2)cc1` [Compound 17] showed an IC50 [1] of less than 50 nM and an IC50 [2] of less than 50 nM.
For `CC(C)C[C@H](NC(=O)CN1CCOCC1)C(=O)N[C@@H](Cc1ccccc1)C(=O)N[C@@H](CC(C)C)C(=O)[C@@]1(C)CO1` [Compound 18], the IC50 [1] was less than 50 nM and the IC50 [2] was less than 50 nM.
